Test results reported in US12213984B2, “Immunoregulatory agent” (KYUSHU UNIVERSITY, NATIONAL UNIVERSITY CORPORATION, priority 2015, dated 2025).

What follows are compounds tested against T1, DOCK2DHR-2 (lobe B and lobe C of the DHR-2 domain of DOCK2) (Homo sapiens, UniProt Q92608) (assay: in-vitro GEF assay, Rac activation by DOCK2 DHR-2 domain with various steroid compounds (Experimental Example 2)). Conditions: Experimental Example 2, Table 1; read-out: IC50 against the Rac activation by DOCK2DHR-2.
T1 construct: polypeptide fragments corresponding to a DHR-2 domain including the lobe B and the lobe C of DOCK2; Histidine-SUMO (N); made in house; host or cells: E. coli Arctic express DE3 (pET28a); Rac in E. coli BL21 DE3 (pGEX-6P-1)
T1 sequence (Q92608 1196-1622): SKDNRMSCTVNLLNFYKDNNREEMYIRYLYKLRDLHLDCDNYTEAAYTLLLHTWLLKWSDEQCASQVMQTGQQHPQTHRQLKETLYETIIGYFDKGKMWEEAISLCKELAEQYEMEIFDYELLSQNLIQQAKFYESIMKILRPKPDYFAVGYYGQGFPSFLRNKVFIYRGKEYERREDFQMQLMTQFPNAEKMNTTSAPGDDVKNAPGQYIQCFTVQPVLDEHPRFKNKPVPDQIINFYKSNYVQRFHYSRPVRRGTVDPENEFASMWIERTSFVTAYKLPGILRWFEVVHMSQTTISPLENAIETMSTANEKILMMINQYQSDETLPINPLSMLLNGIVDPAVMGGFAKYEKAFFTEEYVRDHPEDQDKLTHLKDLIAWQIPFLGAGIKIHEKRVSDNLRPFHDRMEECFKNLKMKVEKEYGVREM
Type: biochemical
Method: An examination was performed using various steroid compounds to test their effects on the Rac activation induced by proteins composed of the lobe B and the lobe C of the DHR-2 domain of DOCK2.
As the steroid compounds, cholesterol 3-sulfate (hereinafter, referred to as “C3S” in some cases), cholesterol, cholesterol 3-acetate (hereinafter, referred to as “C3A” in some cases), pregnenolone 3-sulfate (hereinafter, referred to as “PREG3S” in some cases), dehydroepiandrosterone (hereinafter, referred to as “DHEA” in some cases), dehydroepiandrosterone 3-sulfate (hereinafter, referred to as “DHEA3S” in some cases), estrone 3-sulfate (hereinafter, referred to as “Estrone3S” in some cases), estriol 3-sulfate (hereinafter, referred to as “Estriol3S” in some cases), and estradiol 3-sulfate (hereinafter, referred to as “Estradiol3S” in some cases) were used.
More specifically, a DOCK2-DHR-2 domain protein prepared by the same method as described above was incubated for 20 minutes at room temperature in the presence of various steroid compounds at a predetermined concentration dissolved in DMSO or in the presence of DMSO alone (control) under the shielded condition from light, thereby preparing a pretreated substance of GEF. The concentration of DMSO was adjusted such that it became 3% (1% in the final reaction solution) in all samples. Then, by in-vitro GEF assay in which Rac and Bodipy-FL-GTP prepared by the same method as described above were used, Rac activation by the DHR-2 domain was measured.
Work on `CC(C)CCC[C@@H](C)[C@H]1CC[C@H]2[C@@H]3CC=C4C[C@@H](O)CC[C@]4(C)[C@H]3CC[C@]12C` [Cholesterol, cholesterol] yielded an IC50 of over 200 µM. `C[C@]12CC[C@@H]3c4ccc(OS(=O)(=O)O)cc4CC[C@H]3[C@@H]1C[C@@H](O)[C@@H]2O` [Estriol3S, estriol 3-sulfate] showed an IC50 of over 200 µM. With `C[C@]12CC[C@@H]3c4ccc(OS(=O)(=O)O)cc4CC[C@H]3[C@@H]1CCC2=O` [Estrone3S, estrone 3-sulfate] the IC50 was over 200 µM. With `CC(=O)O[C@H]1CC[C@@]2(C)C(=CC[C@H]3[C@@H]4CC[C@H]([C@H](C)CCCC(C)C)[C@@]4(C)CC[C@@H]32)C1` [C3A, cholesterol 3-acetate] the IC50 was over 200 µM. In the case of `C[C@]12CC[C@H](OS(=O)(=O)O)CC1=CC[C@@H]1[C@@H]2CC[C@]2(C)C(=O)CC[C@@H]12` [DHEA3S, dehydroepiandrosterone 3-sulfate], the IC50 is reported as over 200 µM. In the case of `CC(=O)C1CCC2C3CC=C4CC(OS(=O)(=O)O)CCC4(C)C3CCC12C` (centres unmarked) [PREG3S, pregnenolone 3-sulfate], the IC50 is reported as 76.6 µM. `C[C@]12CC[C@@H]3c4ccc(OS(=O)(=O)O)cc4CC[C@H]3[C@@H]1CC[C@@H]2O` [Estradiol3S, estradiol 3-sulfate] was tested, and the IC50 was over 200 µM.

Same assay, conditions: IC50 against the Rac activation by DOCK2DHR-2, Experimental Example 2, Table 1
`C[C@]12CC[C@H](O)CC1=CC[C@@H]1[C@@H]2CC[C@]2(C)C(=O)CC[C@@H]12` [DHEA, dehydroepiandrosterone] gave an IC50 of over 200 µM.
